Results: patent US11723894B2, “Combination product for the treatment of neurological and/or psychiatric disorders” (Consejo Superior de Investigaciones Cientificas (CSIC), priority 2017, dated 2023)

What was measured:
[1] = tested on: Human SH-SY5Y dopaminergic cells; test: 6-OHDA in vitro model of Parkinson's Disease, nitrite quantification (Griess); assay type: cell-based; settings: DMT 1 μM 1 h, then 6-OHDA 30 μM 24 h
astrocytes = test: LPS-induced nitrite production (Griess) in primary astrocyte cultures; assay type: cell-based, rat
Method: Example 8: DMT, DET, DPT and 5-MeO-DMT administration in vitro prevents inflammation in rat primary glial cells. […] Rat primary glial cell cultures were prepared from the cerebral cortex of 3 day old rats which were dissected, dissociated, and incubated with 0.25% trypsin/EDTA at 37° C. for 1 h. After centrifugation, the pellet was washed three times with HBSS (Gibco) and the cells were plated in poly-D-lysine (20 μg/mL) pretreated flasks (75 cm2). After 7-10 days, the flasks were agitated in an orbital shaker for 4 h at 230 rpm at 37° C. and non-adherent microglial cells were isolated and plated. Then Dulbecco's Modified Eagle's Medium (DMEM) was added to the flasks, which were agitated in a horizontal shaker at 260 rpm at 37° C. After overnight agitation, the supernatant (oligodendrocytes and some remaining microglial cells) was removed, and astrocytes (adherent cells) were collected. The purity of the cultures was >95%, as determined by immunofluorescence analysis using an anti-glial fibrillary acidic protein (GFAP; clone G-A-5; Sigma-Aldrich) antibody to identify astrocytes, and an anti-Iba1 (Wako Catalog No. 019-19741) antibody to identify microglial cells. On attaining semiconfluence, cells were administered each of the test tryptamines at 1 μM or with the combination test tryptamine+Ritanserin (Rit at 1 μM) 2 h before exposure to lipopolysaccharide (LPS, 10 μg/mL; Sigma-Aldrich) and kept in the presence of each drug or drug combination for 24 h. In combination studies, Rit was added to medium 1h before administration of the corresponding tryptamine. Vehicle-treated cultures were used as a control. After the 24 h drug exposure period, cultures were tested to assess nitrite release. To quantify nitrite concentrations in culture medium, supernatants of glial cultures were collected and mixed with an equal volume of Griess reagent (Sigma-Aldrich). Samples were then incubated at room temperature for 15 min and absorbance was measured at 540 nm on a microplate reader. Results are expressed as the mean±SEM of six replications in three different experiments

[2] = tested on: hippocampal subgranular neurogenic niche; test: Short-term (4 days) in vivo activation of the hippocampal subgranular neurogenic niche (BrdU); parameters: species or system C57BL/6 mice; settings: DMT 0.1 μg/animal, lateral ventricle, sacrificed day 5
Method: Adult male C57BL/6 mice (obtained from Charles River Labs) were injected in the lateral ventricle (coordinates: from bregma, posterior −1 mm, lateral +1.3 mm, ventral +2 mm, according to the atlas of Paxinos and Franklin (Paxinos G, Franklin KBJ. The Mouse Brain in Stereotaxic Coordinates. 4. San Diego: Academic Press; 2012)), using a stereotaxic apparatus (Kopf Instruments, CA) with DMT (0.1 μg/animal), alone or in combination with the selective Sigma-1 BD1063 (BD, 0.2 μg/animal, Sigma, catalog number SML0276), the mixed 5-HT2A/1A receptor antagonist methiothepin (Met, 0.2 μg/animal, Sigma catalog number M149), or the selective 5-HT1A receptor antagonist WAY100635 (WAY, 0.2 μg/animal, ABCAM catalog number ab120550). Prior to the injection, mice were anesthetized by intraperitoneal injection of ketamine (60 mg/kg) and medetomidine (0.125 mg/kg). […] The boundaries of these nervous system regions were determined with reference to internal anatomic landmarks (Paxinos G, Franklin KBJ. The Mouse Brain in Stereotaxic Coordinates. 4. San Diego: Academic Press; 2012). For DG area selection, images were analyzed using computer-assisted image analysis software (Soft Imaging System Corporation, Lakewood, Colo., http://www.soft-imaging.com). Positive cells, which intersected the uppermost focal plane (exclusion plane) and the lateral exclusion boundaries of the counting frames, were not counted. […]

With `CN(C)CCc1c[nH]c2ccccc12` [DMT, N,N-dimethyltryptamine] the “nitrite production brought about by 6-OHDA” value ([1]; vs 6-OHDA alone) was “significantly reduced”, the “reduction of nitrite levels in the presence of Ritanserin” value ([1]; Rit 1 μM 1 h) was “preserved” and the “reduction of LPS-induced nitrite in the presence of Rit” value (astrocytes; Rit 1 μM 1 h before tryptamine 1 μM, then LPS 10 μg/mL 24 h) was “maintained”. For the same compound, the LPS-induced nitrite increases (astrocytes; tryptamine 1 μM before LPS 10 μg/mL, 24 h, vs LPS alone) was “significantly reduced” and the “BrdU staining (proliferation) in the hippocampus” value [2] was “increases”.
